Converted amounts (≈) assume the structure as drawn.
Columns and labels:
[1] = Cytotoxicity against mouse EAC cells; type: functional, cell-based; settings: Ehrlich
Oryctolagus cuniculus = organism: Oryctolagus cuniculus; experiment: Blocked of calcium channel in rabbit smooth muscle; type: tissue-based; settings: Muscle tissue
[2] = Negative inotropic activity in guinea pig atria muscle at 36 uM; type: functional, Cavia porcellus, Muscle tissue
Heart = experiment: Toxicity in isolated guinea pig heart assessed as bradycardia at 45 uM/kg; type: tissue-based, Cavia porcellus; settings: ex_vivo
Rattus norvegicus = experiment: Decrease in blood pressure in rat at 45 uM/kg; type: organism-based

## CC1=C2CC[C@@]3(C)C/C=C(/C)CC(=O)C[C@@H](C)C[C@@H](OC1=O)[C@H]23 [CLAVULACTONE]
[1]
  IC50: 8 µg/mL (≈ 25.3 µM)

## CC1=C2CC[C@@]3(C)CC/C(C)=C\C(=O)C[C@@H](C)C[C@@H](OC1=O)[C@H]23 [CLAVIROLIDE D]
[1]
  IC50: 11.7 µg/mL (≈ 37 µM)
Oryctolagus cuniculus
  pD2: 4.79

## CC1=C2CC[C@@]3(C)C/C=C(\C)CC(=O)C[C@@H](C)C[C@@H](OC1=O)[C@H]23 [CLAVIROLIDE B]
[1]
  IC50: 21 µg/mL (≈ 66.4 µM)
Oryctolagus cuniculus
  pD2: 4.68

## CC1=C2CC[C@@]3(C)CC[C@H](C)CC(=O)C[C@@H](C)C[C@@H](OC1=O)[C@H]23 [CLAVIROLIDE C]
[1]
  IC50: 27 µg/mL (≈ 84.8 µM)
Oryctolagus cuniculus
  pD2: 5.48
[2]
  Activity: 50%
Heart
  Activity: 43.7%
Rattus norvegicus
  Activity: 24 mmHg

Source: ChEMBL document CHEMBL1158945, “Four Novel Diterpenoids: Clavirolides B, C, D, and E from the Chinese Soft Coral Clavularia viridis” (J Nat Prod, 1991)
